Assays:
[1] = tested on: subcutaneous plasmacytoma derived from MM.1S cells; assay: First subcutaneous plasmacytoma model, NSG mice with human NK cells; assay type: in vivo; conditions: EDO-S101 30 mg/kg i.v. weekly, daratumumab 8 mg/kg i.p. weekly, 4 weeks; vehicle 30 days
Experimental: For the first subcutaneous human plasmacytoma model, NSG mice (Charles River Laboratories, Wilmington, MA, USA) were subcutaneously inoculated into the right flank with 3×10^6 MM1S in 100 μL RPMI 1640 medium and 100 μL of Matrigel (BD Biosciences). When tumors developed, mice were injected with human NK cells isolated from buffy coats from healthy donors and randomized (4 mice/group) to receive: EDO-S101 (30 mg/kg, iv weekly), daratumumab (8 mg/kg, ip weekly), a combination thereof, or vehicle (PBS vehicle solution with 15% HPBCD, 1.5% acetic acid, and 1.25% NaHCO3). Both, NK cells and the treatments were administered over four consecutive weeks. Caliper measurements of the tumor diameters were performed three times a week, and the tumor volume was estimated as the volume of a 3D ellipse using the following formula: V=4/3π×(a/2)×(b/2)^2, where “a” and “b” correspond to the longest and shortest diameter, respectively. Animals were killed when their tumors reached 2 cm. Differences in tumor volumes between control and treated groups were evaluated using one-way analysis of variance and Dunn's post-hoc tests. […]

CD38 = CD38 expression by immunofluorescence in MM cell lines; assay type: cell-based, human; conditions: RPMI-8226, MOLP-8; 2.5 μM; relative to DMSO control
Experimental: Immunofluorescence After appropriate treatments in vitro, cells were placed on glass slides coated with poly-L-lysine followed by 15 minutes incubation in a cell culture incubator. Cells were fixed with 4% paraformaldehyde for 30 minutes, blocked with BSA 100 μg/mL for 1 h at room temperature and incubated with a primary antibody (anti-CD38 antibody (1:100)) overnight at 4° C. The incubation with the anti-mouse secondary antibody, labelled with Alexa Fluor 488, was performed in darkness for 1 h at room temperature. After three washes for 5 min in PBS, nuclei were stained with DAPI (Sigma) 1:1000 in PBS for 5 min at room temperature. Finally, cells were washed three times for 10 min in PBS and slides were then mounted using VECTASHIELD Mounting Medium (Vector Laboratories, Burlingame, CA). Fluorescent images were acquired with a LEICA SP5 DMI-6000B confocal microscope (Leica, Wetzlar, Germany) with a 63.0× lens zoomed in 6×.

[2] = tested on: c-Jun and c-Fos (subunits of the transcription factor AP-1); assay: Western blot of transcription factors in MM cell lines; assay type: cell-based, human; conditions: MM1.S and RPMI-8226 (two of four lines); 1 and 2.5 μM, 48 h
Experimental: (§1) Western Blot Analysis Cells were collected and centrifuged at 1200 rpm for 5 minutes at 4° C. Cells were washed with PBS and lysed in ice-cold lysis buffer [140 mmol/L NaCl, 10 mmol/L EDTA, 10% glycerol, 1% NP40, 20 mmol/L Tris (pH 7), 1 μMol/L pepstatin, 1 μg/mL aprotinin, 1 μg/mL leupeptin, 1 mmol/L sodium orthovanadate]. Samples were centrifuged at 10,000×g at 4° C. for 10 minutes, and supernatants were transferred to new tubes and western blots were performed following standard procedures. CD38 and anti-α-tubulin primary antibodies used in Western blot analyses were obtained from Cell Signaling (Boston, MA, USA). The horseradish peroxidase-conjugated secondary antibodies were from GE Healthcare (Chicago, IL, USA).
(§2) To determine the mechanism by which EDO-S101 increases CD38 expression, the expression of the transcription factors NF-κB, AP-1 and IRF-1 which are known to be involved in regulating the expression of CD38 was evaluated. Treatment with EDO-S101 (1 and 2.5 μM) for 48 h increased the expression of c-Jun and c-Fos (subunits of the transcription factor AP-1) in two (MM1.S and RPMI-8226) of the four myeloma cell lines tested (FIG. 5). Additionally, EDO-S101 increased IRF-1 expression in the MOLP-8 cell line (FIG. 5).

IRF-1 = assay: as above; assay type: cell-based, human; conditions: MOLP-8 cell line; 1 and 2.5 μM, 48 h
Experimental: as §1, §2

Structure (SMILES): Cn1c(CCCCCCC(=O)NO)nc2cc(N(CCCl)CCCl)ccc21 [EDO-S101, 7-(5-(bis(2-chloroethyl)amino)-1-methyl-1H-benzo[d]imidazol-2-yl)-N-hydroxyheptanamide]
- median survival [1]: 48 days
- CD38 expression, immunofluorescence (CD38): increased
- expression of c-Jun and c-Fos [2]: increased
- IRF-1 expression (IRF-1): increased
